Patent US20080064735A1, “Method for controlling harmful organisms in crops of useful plants” (priority 2001, published 2008)

System: Plutella xylostella
Experiment: Plutella xylostella greenhouse spray test on cauliflower and Bt cauliflower (cry9C)
Format: in vivo
Experimental: Seven-week-old cauliflower plants (ordinary cauliflower, variety: Marner Allfrüh) and Bt cauliflower ([…], contains cry9C) were sprayed with the test insecticides with the aid of a track sprayer (200 l/ha). After drying, each of the plants was infected with 5 L2 larvae and 5 L3 larvae of Plutella xylostella. After 2, 4 and 7 days (DAA), feeding damage and mortality were scored. The test was carried out in a greenhouse at 23° C. and a relative atmospheric humidity of 60%.

[1] = 1 g active substance/ha, 2 DAA, Bt cauliflower
[2] = 1 g active substance/ha, 2 DAA, cauliflower
[3] = 1 g active substance/ha, 4 DAA, Bt cauliflower
[4] = 1 g active substance/ha, 4 DAA, cauliflower
[5] = 1 g active substance/ha, 7 DAA, Bt cauliflower
[6] = 1 g active substance/ha, 7 DAA, cauliflower
[7] = 3 g active substance/ha, 2 DAA, Bt cauliflower
[8] = 3 g active substance/ha, 2 DAA, cauliflower
[9] = 3 g active substance/ha, 4 DAA, Bt cauliflower
[10] = 3 g active substance/ha, 4 DAA, cauliflower
[11] = 3 g active substance/ha, 7 DAA, Bt cauliflower
[12] = 3 g active substance/ha, 7 DAA, cauliflower
[13] = 10 g active substance/ha, 2 DAA, Bt cauliflower
[14] = 10 g active substance/ha, 2 DAA, cauliflower
[15] = 10 g active substance/ha, 4 DAA, Bt cauliflower
[16] = 10 g active substance/ha, 4 DAA, cauliflower
[17] = 10 g active substance/ha, 7 DAA, Bt cauliflower
[18] = 10 g active substance/ha, 7 DAA, cauliflower
[19] = 30 g active substance/ha, 2 DAA, Bt cauliflower
[20] = 30 g active substance/ha, 2 DAA, cauliflower
[21] = 30 g active substance/ha, 4 DAA, Bt cauliflower
[22] = 30 g active substance/ha, 4 DAA, cauliflower
[23] = 30 g active substance/ha, 7 DAA, Bt cauliflower
[24] = 30 g active substance/ha, 7 DAA, cauliflower
[25] = 100 g active substance/ha, 2 DAA, Bt cauliflower
[26] = 100 g active substance/ha, 2 DAA, cauliflower
[27] = 100 g active substance/ha, 4 DAA, Bt cauliflower
[28] = 100 g active substance/ha, 4 DAA, cauliflower
[29] = 100 g active substance/ha, 7 DAA, Bt cauliflower
[30] = 100 g active substance/ha, 7 DAA, cauliflower

N#Cc1nn(-c2c(Cl)cc(C(F)(F)F)cc2Cl)c(N)c1[S+]([O-])C(F)(F)F (stereo not drawn) [Fipronil]
70%: % mortality [1] | % mortality [20]
5%: % feeding damage [22] | % feeding damage [24]
100%: % mortality [3] | % mortality [5] | % mortality [7] | % mortality [9] | % mortality [11] | % mortality [13] | % mortality [15] | % mortality [17] | % mortality [19] | % mortality [21] | % mortality [22] | % mortality [23] | % mortality [24] | % mortality [25] | % mortality [26] | % mortality [27] | % mortality [28] | % mortality [29] | % mortality [30]
10%: % feeding damage [2] | % feeding damage [4] | % feeding damage [8] | % feeding damage [10] | % feeding damage [18]
8%: % feeding damage [14] | % feeding damage [16]
12%: % feeding damage [6] | % feeding damage [12]
0%: % feeding damage [1] | % mortality [2] | % feeding damage [3] | % mortality [4] | % feeding damage [5] | % mortality [6] | % feeding damage [7] | % feeding damage [9] | % feeding damage [11] | % feeding damage [13] | % feeding damage [15] | % feeding damage [17] | % feeding damage [19] | % feeding damage [21] | % feeding damage [23] | % feeding damage [25] | % feeding damage [27] | % feeding damage [29]
1%: % feeding damage [26] | % feeding damage [28] | % feeding damage [30]
50%: % mortality [18]
4%: % feeding damage [20]
20%: % mortality [8] | % mortality [10] | % mortality [12] | % mortality [14] | % mortality [16]

CCc1nn(C)c(C(=O)NCc2ccc(Oc3ccc(C)cc3)cc2)c1Cl [Tolfenpyrad]
0%: % mortality [8] | % mortality [10] | % mortality [12] | % mortality [13] | % mortality [14] | % mortality [16] | % mortality [18] | % feeding damage [19] | % mortality [20] | % feeding damage [21] | % mortality [22] | % feeding damage [23] | % mortality [24] | % mortality [26] | % mortality [30]
100%: % mortality [21] | % mortality [23] | % mortality [27] | % mortality [29]
5%: % feeding damage [26] | % feeding damage [28] | % feeding damage [30]
60%: % mortality [19]
50%: % mortality [11] | % mortality [15] | % mortality [17]
3%: % feeding damage [7]
20%: % mortality [25] | % mortality [28]
30%: % mortality [9]
10%: % mortality [7] | % feeding damage [8] | % feeding damage [9] | % feeding damage [10] | % feeding damage [11] | % feeding damage [12] | % feeding damage [13] | % feeding damage [14] | % feeding damage [15] | % feeding damage [16] | % feeding damage [17] | % feeding damage [18] | % feeding damage [20] | % feeding damage [22] | % feeding damage [24] | % feeding damage [25] | % feeding damage [27] | % feeding damage [29]

C/C(=N\C#N)N(C)Cc1ccc(Cl)nc1 [Acetamiprid]
15%: % feeding damage [18] | % feeding damage [24]
12%: % feeding damage [16] | % feeding damage [22]
0%: % feeding damage [13] | % mortality [14] | % feeding damage [15] | % mortality [16] | % feeding damage [17] | % mortality [18] | % feeding damage [19] | % mortality [20] | % feeding damage [21] | % mortality [22] | % feeding damage [23] | % mortality [24]
100%: % mortality [13] | % mortality [15] | % mortality [17] | % mortality [19] | % mortality [21] | % mortality [23]
10%: % feeding damage [14] | % feeding damage [20]

CS/C(C)=N\OC(=O)N(C)SN(C)C(=O)O/N=C(\C)SC [Thiodicarb]
10%: % feeding damage [2] | % feeding damage [4] | % feeding damage [8] | % feeding damage [10] | % feeding damage [14] | % feeding damage [16] | % feeding damage [20] | % feeding damage [22] | % feeding damage [26] | % feeding damage [28] | % feeding damage [30]
0%: % feeding damage [1] | % mortality [2] | % feeding damage [3] | % mortality [4] | % feeding damage [5] | % mortality [6] | % feeding damage [7] | % mortality [8] | % feeding damage [9] | % mortality [10] | % feeding damage [11] | % mortality [12] | % feeding damage [13] | % mortality [14] | % feeding damage [15] | % mortality [16] | % feeding damage [17] | % mortality [18] | % feeding damage [19] | % mortality [20] | % feeding damage [21] | % mortality [22] | % feeding damage [23] | % mortality [24] | % feeding damage [25] | % mortality [26] | % feeding damage [27] | % mortality [28] | % feeding damage [29] | % mortality [30]
15%: % feeding damage [6] | % feeding damage [12] | % feeding damage [18] | % feeding damage [24]
90%: % mortality [13]
100%: % mortality [1] | % mortality [3] | % mortality [5] | % mortality [7] | % mortality [9] | % mortality [11] | % mortality [15] | % mortality [17] | % mortality [19] | % mortality [21] | % mortality [23] | % mortality [25] | % mortality [27] | % mortality [29]
